# Results: US10881110B2, “Herbicidal compositions comprising isoxazolo[5,4-b]pyridines” (BASF SE, priority 2014, dated 2021)
# Read-outs that look alike come from different tables or passages of the source.
# How the values were obtained:
# Assay in all cases: greenhouse post-emergence herbicidal test
# IPOHE = format: in vivo, Ipomoea hederacea; design: key to herbicidal activity against IPOHE found: rating on a scale from 0 to 100; conditions: post emergence
# Outline: (§1)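 Post-emergence greenhouse test: plants in loamy sand, sprayed at 1–15 cm height with aqueous spray liquor from 10% emulsion concentrates, kept at 10-25 °C or 20-35 °C by species. Damage scored 0–100 (100 = complete destruction), usually 20 days after treatment. Expected additive effect E from Colby: E=X+Y−(X·Y/100).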
# APESV = format: in vivo, Apera spica-venti; design: key to herbicidal activity against APESV found: rating on a scale from 0 to 100
# Outline: (§2)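 Test plants, sown directly or transplanted a few days earlier, are treated at 1–15 cm height with emulsified or suspended actives in water. Temperatures run 10-25° C or 20-35° C by species; injury is scored 0–100 twenty days after spraying.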
# ALOMY = format: in vivo, Alopecurus myosuroides; design: key to herbicidal activity against ALOMY found: rating on a scale from 0 to 100; conditions: post emergence
# Outline: as §2
# ERICA = format: in vivo, Conyza canadensis; design: key to herbicidal activity against ERICA found: rating on a scale from 0 to 100; conditions: post emergence
# Outline: as §2
# GERDI = format: in vivo, Geranium dissectum; design: key to herbicidal activity against GERDI found: rating on a scale from 0 to 100; conditions: single active, post emergence
# Outline: as §2
# MATCH = format: in vivo, Matricaria recutita; design: key to herbicidal activity against MATCH found: rating on a scale from 0 to 100
# Outline: as §2
# AMBEL = format: in vivo, Ambrosia artemisiifolia; design: key: rating on a scale from 0 to 100
# Experimental: (§3) The culture containers used were plastic pots containing medium loamy sand with approximately 4.6% of humus and 69.9% sand as substrate. The seeds of the test plants were sown separately for each species.
# (§4) For the post-emergence treatment, the test plants were grown to a plant height of from 1 to 15 cm, depending on the plant habit, and only then treated with the active compounds which had been suspended or emulsified in water. To this end, the test plants were either sown directly, and grown in the same containers, or they were first grown separately as seedlings and transplanted into the test containers a few days prior to treatment.
# (§5) Depending on the species, the plants were kept at 10-25° C. and 20-35° C., respectively.
# (§6) The test period extended over 1 to 3 weeks. During this time, the plants were tended and their response to the individual treatments was evaluated 20 days after treatment except mentioned otherwise.
# (§7) Evaluation was carried out using a scale from 0 to 100. 100 means no emergence of the plants, or complete destruction of at least the above-ground parts, and 0 means no damage or normal course of growth.
# (§8) The respective stated components A and B, and, if appropriate, C, were formulated as a 10% by weight strength emulsion concentrate and, with addition of the amount of solvent system, introduced into the spray liquor used for applying the active compound. In the examples, the solvent used was water.
# (§9) In the examples below, using the method of S. R. Colby (1967) “Calculating synergistic and antagonistic responses of herbicide combinations”, Weeds 15, p. 22 ff., the value E, which is expected if the activity of the individual active compounds is only additive, was calculated. E=X+Y−(X·Y/100)
# ECHCG = format: in vivo, Echinochloa crus-galli; design: key to herbicidal activity against ECHCG found / herbicidal activity against ECHCH found: scale 0 to 100
# Outline: as §2
# VIOAR = format: in vivo, Viola arvensis; design: key to herbicidal activity against VIOAR found / herbicidal activity against VIOLA found: rating on a scale from 0 to 100; conditions: single active, 175 g/ha a.i., post emergence
# Outline: as §1
# POLCO = format: in vivo, Polygonum convolvulus; design: key to herbicidal activity against POLCO found: rating on a scale from 0 to 100; conditions: for herbicidal activity against POLCO found: single active
# Outline: as §1
# CONAR = format: in vivo, Convolvulus arvensis; design: key: rating on a scale from 0 to 100
# Experimental: as §3, §4, §5, §6, §7, §8, §9
# GALAP = format: in vivo, Galium aparine; design: key to herbicidal activity against GALAP found: rating on a scale from 0 to 100; conditions: for herbicidal activity against GALAP found: 20 days after treatment
# Outline: as §1
# ABUTH = format: in vivo, Abutilon theophrast; design: key to herbicidal activity against ABUTH found: rating on a scale from 0 to 100
# Outline: as §2
# CHEAL = format: in vivo, Chenopodium album
# Experimental: as §3, §4, §5, §6, §7, §8, §9
# PAPRH = format: in vivo, Papaver rhoeas; design: key: rating on a scale from 0 to 100; conditions: B.93 alone 1.5 g/ha a.i.
# Outline: as §2
# SASKR = format: in vivo, Salsola kali; design: key: scale 0 to 100; conditions: 9.375 g/ha a.i.
# Experimental: as §3, §4, §5, §6, §7, §8, §9
# [1] = single active, 175 g/ha a.i., post emergence
# [2] = a.i. g/ha: I.1 62.5, B.69 25, 20 days after treatment
# [3] = a.i. g/ha: I.1 31.25, B.69 25, 20 days after treatment
# [4] = Echinochloa crus-galli, post-emergence, 480 h, read-out: herbicidal activity against ECHCG found
# [5] = Abutilon theophrasti, post-emergence, 480 h, read-out: herbicidal activity against ABUTH found
compound,measurement,setting,value
COCC(C)N(C(=O)CCl)c1c(C)csc1C (stereo not shown) [DMTA],herbicidal activity against IPOHE found,"IPOHE; single active, 350 g/ha a.i.",25
same,herbicidal activity against APESV found,APESV; [1],95
same,herbicidal activity against ALOMY found,"ALOMY; single active, 175 g/ha a.i.",0
same,herbicidal activity against ALOMY found,"ALOMY; single active, 350 g/ha a.i.",45
same,herbicidal activity against ERICA found,"ERICA; single active, 175 g/ha a.i.",15
same,herbicidal activity against GERDI found,GERDI; 175 g/ha a.i.,30
same,herbicidal activity against GERDI found,GERDI; 350 g/ha a.i.,60
same,herbicidal activity against MATCH found,MATCH; [1],30
same,herbicidal activity against MATCH found,"MATCH; single active, 350 g/ha a.i., post emergence",30
same,herbicidal activity against AMBEL found,"AMBEL; single active, 175 g/ha a.i.",0
same,herbicidal activity against AMBEL found,"AMBEL; single active, 350 g/ha a.i.",20
same,herbicidal activity against ECHCG found,ECHCG; [1],90
same,herbicidal activity against VIOLA found,VIOAR,0
same,herbicidal activity against POLCO found,"POLCO; 175 g/ha a.i., post emergence",0
same,herbicidal activity against POLCO found,"POLCO; 350 g/ha a.i., post emergence",25
"N#Cc1cc(Br)c(O)c(Br)c1 [B.69, bromoxynil]",herbicidal activity against ERICA found,ERICA; [2],30%
same,herbicidal activity against MATCH found,"MATCH; post emergence, a.i. g/ha: I.1 31.25, B.69 25, 20 days after treatment",0%
same,herbicidal activity against CONAR found,CONAR; [3],50%
same,herbicidal activity against CONAR found,CONAR; [2],50%
same,herbicidal activity against GALAP found,"GALAP; post emergence, a.i. g/ha: I.1 62.5, B.69 25",50%
same,herbicidal activity against ABUTH found,"ABUTH; post emergence, a.i. g/ha: I.1 62.5, B.69 25, 20 days after treatment",35%
same,herbicidal activity against CHEAL found,CHEAL; [3],60%
same,herbicidal activity against CHEAL found,CHEAL; [2],60%
"Cc1nn(-c2cc(NS(C)(=O)=O)c(Cl)cc2Cl)c(=O)n1C(F)F [B.93, sulfentrazone]",pest or weed control at 1.5 g/ha,"APESV; Apera spica-venti, post-emergence, 480 h, B.93 alone 1.5 g/ha a.i., post emergence, read-out: herbicidal activity against APESV found",10%
same,pest or weed control at 1.5 g/ha,"ALOMY; Alopecurus myosuroides, post-emergence, 480 h, B.93 alone 1.5 g/ha a.i., read-out: herbicidal activity against ALOMY found",0%
same,pest or weed control at 1.5 g/ha,"MATCH; Matricaria chamomilla, post-emergence, 480 h, B.93 alone 1.5 g/ha a.i., post emergence, read-out: herbicidal activity against MATCH found",0%
same,pest or weed control at 3 g/ha,"MATCH; Matricaria chamomilla, post-emergence, 480 h, B.93 alone 3 g/ha a.i., post emergence, read-out: herbicidal activity against MATCH found",50%
same,pest or weed control at 6 g/ha,"MATCH; Matricaria chamomilla, post-emergence, 480 h, B.93 alone 6 g/ha a.i., post emergence, read-out: herbicidal activity against MATCH found",50%
same,herbicidal activity against AMBEL found,AMBEL; B.93 alone 1.5 g/ha a.i.,20
same,herbicidal activity against AMBEL found,AMBEL; B.93 alone 6 g/ha a.i.,30
same,pest or weed control at 1.5 g/ha,"GALAP; Galium aparine, post-emergence, 480 h, B.93 alone 1.5 g/ha a.i., post emergence, read-out: herbicidal activity against GALAP found",45%
same,herbicidal activity against PAPRH found,PAPRH,70
same,pest or weed control at 3 g/ha,"POLCO; Fallopia convolvulus, post-emergence, 480 h, B.93 alone 3 g/ha a.i., post emergence, read-out: herbicidal activity against POLCO found",85%
same,pest or weed control at 6 g/ha,"POLCO; Fallopia convolvulus, post-emergence, 480 h, B.93 alone 6 g/ha a.i., post emergence, read-out: herbicidal activity against POLCO found",85%
COc1nc(C)nc(=NC(=O)NS(=O)(=O)c2ccccc2C(=O)O)[nH]1 [metsulfuron],pest or weed control at 0.25 g/ha,"APESV; Apera spica-venti, post-emergence, 480 h, read-out: herbicidal activity against APESV found",30%
same,pest or weed control at 0.125 g/ha,"MATCH; Matricaria chamomilla, post-emergence, 480 h, read-out: herbicidal activity against MATCH found",0%
same,herbicidal activity against AMBEL found,AMBEL; metsulfuron alone 0.125 g/ha a.i.,0
same,pest or weed control at 0.125 g/ha,ECHCG; [4],0%
same,pest or weed control at 0.25 g/ha,ECHCG; [4],25%
same,pest or weed control at 0.125 g/ha,"GALAP; Galium aparine, post-emergence, 480 h, read-out: herbicidal activity against GALAP found",10%
same,pest or weed control at 0.125 g/ha,ABUTH; [5],20%
same,pest or weed control at 0.25 g/ha,ABUTH; [5],80%
same,pest or weed control at 0.125 g/ha,"POLCO; Fallopia convolvulus, post-emergence, 480 h, read-out: herbicidal activity against POLCO found",30%
"CS(=O)(=O)c1ccc(C(=O)C2C(=O)CCCC2=O)c(Cl)c1COCC(F)(F)F [B.106, tembotrione]",pest or weed control at 9.375 g/ha,"IPOHE; Ipomoea hederacea, post-emergence, 480 h, 9.375 g/ha a.i., read-out: herbicidal activity against IPOHE found",70%
same,pest or weed control at 9.375 g/ha,"ERICA; Erigeron canadensis, post-emergence, 480 h, 9.375 g/ha a.i., read-out: herbicidal activity against ERICA found",90%
same,herbicidal activity against SASKR found,SASKR,65
same,pest or weed control at 9.375 g/ha,"MATCH; Matricaria chamomilla, post-emergence, 480 h, post emergence, 9.375 g/ha a.i., read-out: herbicidal activity against MATCH found",65%
"CCOc1cc(Oc2ccc(C(F)(F)F)cc2Cl)ccc1[N+](=O)[O-] [B.91, oxyfluorfen]",pest or weed control at 100 g/ha,"ALOMY; Alopecurus myosuroides, post-emergence, 480 h, single active, 100 g/ha a.i., read-out: herbicidal activity against ALOMY found",85%
same,pest or weed control at 100 g/ha,"ERICA; Erigeron canadensis, post-emergence, 480 h, single active, 100 g/ha a.i., read-out: herbicidal activity against ERICA found",0%
same,pest or weed control at 200 g/ha,"ERICA; Erigeron canadensis, post-emergence, 480 h, single active, 200 g/ha a.i., read-out: herbicidal activity against ERICA found",90%
same,herbicidal activity against AMBEL found,"AMBEL; single active, 100 g/ha a.i.",70
same,pest or weed control at 100 g/ha,"ECHCG; Echinochloa crus-galli, post-emergence, 480 h, single active, 100 g/ha a.i., post emergence, read-out: herbicidal activity against ECHCG found",60%
"Cc1cnc(C2=NC(=O)C(C)(C(C)C)N2)c(C(=O)O)c1 (stereo not shown) [B.32, imazapic]",pest or weed control at 6 g/ha,"IPOHE; Ipomoea hederacea, post-emergence, 480 h, B.32 alone 6 g/ha a.i., read-out: herbicidal activity against IPOHE found",75%
same,pest or weed control at 3 g/ha,"APESV; Apera spica-venti, post-emergence, 480 h, B.32 alone 3 g/ha a.i., post emergence, read-out: herbicidal activity against APESV found",65%
same,pest or weed control at 6 g/ha,"APESV; Apera spica-venti, post-emergence, 480 h, B.32 alone 6 g/ha a.i., post emergence, read-out: herbicidal activity against APESV found",80%
same,pest or weed control at 3 g/ha,"ALOMY; Alopecurus myosuroides, post-emergence, 480 h, B.32 alone 3 g/ha a.i., read-out: herbicidal activity against ALOMY found",25%
same,pest or weed control at 3 g/ha,"MATCH; Matricaria chamomilla, post-emergence, 480 h, B.32 alone 3 g/ha a.i., post emergence, read-out: herbicidal activity against MATCH found",0%
same,pest or weed control at 6 g/ha,"MATCH; Matricaria chamomilla, post-emergence, 480 h, B.32 alone 6 g/ha a.i., post emergence, read-out: herbicidal activity against MATCH found",30%
same,herbicidal activity against AMBEL found,AMBEL; B.32 alone 3 g/ha a.i.,0
same,herbicidal activity against AMBEL found,AMBEL; B.32 alone 6 g/ha a.i.,65
same,pest or weed control at 6 g/ha,"ABUTH; Abutilon theophrasti, post-emergence, 480 h, B.32 alone 6 g/ha a.i., post emergence, read-out: herbicidal activity against ABUTH found",85%
same,pest or weed control at 3 g/ha,"POLCO; Fallopia convolvulus, post-emergence, 480 h, B.32 alone 3 g/ha a.i., post emergence, read-out: herbicidal activity against POLCO found",85%
"CCNc1nc(Cl)nc(NC(C)(C)C)n1 [B.82, terbuthylazine]",herbicidal activity against GALAP found,"GALAP; post emergence, a.i. g/ha: I.1 62.5, B.82 31.25",55%
same,herbicidal activity against CHEAL found,"CHEAL; a.i. g/ha: I.1 62.5, B.82 31.25, 20 days after treatment",65%
